Measurements: patent US20110071158A1, “NEW COMPOUNDS” (BOEHRINGER INGELHEIM INTERNATIONAL GMBH, priority 2009, published 2011)

How the values were obtained:
Assay type in all cases: biochemical
PTK2 enzyme [1] = biological target: T1, PTK2 enzyme (Homo sapiens, UniProt Q05397); test: PTK2 enzyme test, Assay 1 (DELFIA, poly-Glu-Tyr substrate, antibody PT60); settings: Assay 1 (values without *); 1 h pre-incubation, 2% DMSO
T1 construct: purchased Invitrogen PV3832
Procedure, shortened: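 Active PTK2 (0.01 µg/well) preincubated 1 h at RT with compound (duplicates, 2% DMSO final), then reacted 1 h at RT with poly(Glu,Tyr) 4:1 plus biotinylated poly(Glu,Tyr) and an ATP mix containing 50 μM ATP. EDTA-stopped, streptavidin-captured product detected by Eu-PT60 anti-phosphotyrosine DELFIA; IC50 by variable-Hill sigmoid fit.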

[2] = biological target: T2, Xenopus laevis Aurora B/INCENP complex (Xenopus laevis, UniProt Q6DE08); test: Aurora-B kinase assay (radioactive enzyme inhibition)
T2 construct: equipped at the N-terminal position with a GST tag (amino acids 60-361); GST (N, cleaved yes); made in house; host or cells: E. coli BL21 (DE3)
T2 sequence (Q6DE08 60-361): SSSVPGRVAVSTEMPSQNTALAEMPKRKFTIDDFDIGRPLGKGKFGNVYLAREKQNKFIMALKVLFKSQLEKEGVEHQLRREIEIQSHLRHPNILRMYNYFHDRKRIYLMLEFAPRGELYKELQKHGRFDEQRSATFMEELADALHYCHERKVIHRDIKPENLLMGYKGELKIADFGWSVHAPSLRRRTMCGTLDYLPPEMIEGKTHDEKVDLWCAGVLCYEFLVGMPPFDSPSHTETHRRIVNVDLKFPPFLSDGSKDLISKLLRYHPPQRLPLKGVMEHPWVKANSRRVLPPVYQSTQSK
T2 sequence (O13024 790-847 partner): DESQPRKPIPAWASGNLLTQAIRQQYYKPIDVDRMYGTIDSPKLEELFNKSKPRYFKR
Excerpt: A radioactive enzyme inhibition assay was developed using E. coli-expressed recombinant Xenopus laevis Aurora B wild-type protein equipped at the N-terminal position with a GST tag (amino acids 60-361) in a complex with Xenopus laevis INCENP (amino acids 790-847), which is obtained from bacteria and purified. In equivalent manner a Xenopus laevis Aurora B mutant (G96V) in a complex with Xenopus laevis INCENP^790-847 may also be used.
The coding sequence for Aurora-B^60-361 from Xenopus laevis is cloned into a modified version of pGEX-6T (Amersham Biotech) via BamHI and SalI cutting sites. The vector contains two cloning cassettes which are separated by a ribosomal binding site, allowing bi-cistronic expression. In this configuration Xenopus laevis Aurora B is expressed by the first cassette, and the Xenopus laevis INCENP^790-847 is expressed by the second cassette. The resulting vector is pAUB-IN^847.
First of all the E. coli strain BL21 (DE3) is co-transformed with pUBS520 helper plasmid and pAUB-IN^847, after which protein expression is induced using 0.3 mM IPTG at an OD600 of 0.45-0.7. The expression is then continued for approx. 12-16 h at 23-25° C. with agitation.
The bacteria are then removed by centrifuging and the pellet is lysed in lysis buffer (50 mM Tris/Cl pH 7.6, 300 mM NaCl, 1 mM DTT, 1 mM EDTA, 5% glycerol, Roche Complete Protease Inhibitor tablets) using ultrasound, using 20-30 mL lysis buffer per litre of E. coli culture. The lysed material is freed from debris by centrifugation (12000 rpm, 45-60 min, JA20 rotor). The supernatant is incubated with […] of equilibrated GST Sepharose Fast Flow (Amersham Biosciences) per litre of E. coli culture for 4-5 h at 4° C. Then the column material is washed with 30 volumes of lysis buffer and then equilibrated with 30 volumes of cleavage buffer (50 mM Tris/Cl pH 7.6, 150 mM NaCl, 1 mM DTT, 1 mM EDTA). To cleave the GST tag from Aurora B, 10 units of Prescission Protease (Amersham Biosciences) are used per milligram of substrate and the mixture is incubated for 16 h at 4° C. The supernatant which contains the cleavage product is loaded onto a 6 mL Resource Q column (Amersham Biosciences) equilibrated with ion exchange buffer (50 mM Tris/Cl pH 7.6, 150 mM NaCl, 1 mM DTT, 1 mM EDTA). The Aurora B/INCENP complex is caught as it flows through, then concentrated and loaded onto a Superdex 200 size exclusion chromatography (SEC) column equilibrated with SEC buffer (10 mM Tris/Cl pH 7.6, 150 mM NaCl, 1 mM DTT, 1 mM EDTA). Fractions which contain the AuroraB/INCENP complex are collected and concentrated using Vivaspin concentrators (molecular weight exclusion 3000-5000 Da) to a final concentration of 12 mg/mL. Aliquots (e.g. 240 ng/μL) for kinase assays are transferred from this stock solution into freezing buffer (50 mM Tris/Cl pH 8.0, 150 mM NaCl, 0.1 mM EDTA, 0.03% Brij-35, 10% glycerol, 1 mM DTT) and stored at −80° C.
Test substances are placed in a polypropylene dish (96 wells, Greiner #655 201), in order to cover a concentration frame of 10 μM-0.0001 μM. The final concentration of DMSO in the assay is 5%. 30 μL of protein mix (50 mM Tris/Cl pH 7.5, 25 mM MgCl2, 25 mM NaCl, 167 μM ATP, 10 ng Xenopus laevis Aurora B/INCENP complex in freezing buffer) are pipetted into the 10 μl of test substance provided in 25% DMSO and this is incubated for 15 min at RT. Then 10 μL of peptide mix (100 mM Tris/Cl pH 7.5, 50 mM MgCl2, 50 mM NaCl, 5 μM NaF, 5 μM DTT, 1 μCi gamma-P33-ATP [Amersham], 50 μM substrate peptide [biotin-EPLERRLSLVPDS or multimers thereof, or biotin-EPLERRLSLVPKM or multimers thereof, or biotin-[…]]) are added. The reaction is incubated for 75 min (ambient temperature) and stopped by the addition of 180 μL of 6.4% trichloroacetic acid and incubated for 20 min on ice. […]

PTK2 enzyme [3] = biological target: T1, PTK2 enzyme; test: PTK2 enzyme test, Assay 2 (DELFIA, poly-Glu-Tyr substrate, antibody PT66); settings: Assay 2 (values marked *); 1 h pre-incubation, 0.5% DMSO
Excerpt: This test uses active PTK2 enzyme (Invitrogen Code PV3832) and poly-Glu-Tyr (4:1, Sigma P-0275) as the kinase substrate. The kinase activity is detected by means of the phosphorylation of the substrate in a DELFIA™ assay. The phosphorylated substrate is detected with the europium-labelled phosphotyrosine antibody PT66 (Perkin Elmer, No.: AD0040).
In order to determine concentration-activity curves with PTK2-inhibitors the compounds are serially diluted first of all in 10% DMSO/H2O and then in kinase dilution buffer (20 mM TRIS/HCl pH 7.5, 0.1 mM EDTA, 0.1 mM EGTA, 0.286 mM sodium orthovanadate, 10% glycerol with the addition of freshly prepared BSA (fraction V, 1 mg/mL) and DTT (1 mM)) and 10 μL of each dilution are dispensed per well in a 96-well microtitre plate (clear U-shaped base plate, Greiner No. 650101) (the inhibitors are tested in duplicates) and mixed with 10 μL/well of PTK2 kinase (0.01 μg/well). PTK2 kinase is diluted accordingly beforehand with kinase dilution buffer. The diluted PTK2 inhibitor and the PTK2 kinase are pre-incubated for 1 h at RT and shaken at 500 revolutions per min. Then 10 μL/well poly-Glu-Tyr substrate (25 μg/well poly-Glu-Tyr, 0.05 μg/well biotinylated poly-Glu-Tyr dissolved in 250 mM TRIS/HCl pH 7.5, 9 mM DTT) are added. The reaction is started by the addition of 20 μL of ATP Mix (30 mM TRIS/HCl pH 7.5, 0.02% Brij, 0.2 mM sodium orthovanadate, 10 mM magnesium acetate, 0.1 mM EGTA, 1× phosphatase inhibitor cocktail 1 (Sigma, No.: P2850), 50 μM ATP (Sigma, No.: A3377; 15 mM stock solution))—the final concentration of DMSO is 0.5%. After 1 h kinase reaction (the plates are shaken at 500 rpm), the reaction is stopped by the addition of 12 μL/well of 100 mM EDTA, pH 8, and shaken for a further 5 min at RT (500 U/min). 55 μL of the reaction mixture are transferred into a streptavidin plate (Strepta Well High Bind (transparent, 96-well) made by Roche, No.: 11989685001) and incubated for 1 h at RT (shaking at 500 rpm). Then the microtitre plate is washed five times with 200 μL/well D-PBS (Invitrogen, No. 14190). 100 μL of a solution containing DELFIA Eu-N1 Anti-Phosphotyrosine PT66 antibody (Perkin Elmer, No.: AD0040, diluted 1:9000 in DELFIA test buffer (Perkin Elmer, No.: 1244-111)) is then added and it is incubated for 1 h at RT (shaking at 500 rpm). Then the plate is washed five times with 200 μL/well DELFIA washing buffer (Perkin Elmer, No.: 1244-114), 200 μL/well strengthening solution (Perkin Elmer, No.: 1244-105) is added and the whole is incubated for 10 min at RT (shaking at 300 rpm).
The time-delayed europium fluorescence is then measured in a microtitre plate reader (Victor, Perkin Elmer). The positive control consists of wells that contain solvent (0.5% DMSO in test buffer) and display uninhibited kinase activity. Wells that contain test buffer instead of enzyme act as a control for the background kinase activity.
The IC50 values are determined from concentration-activity analyses by iterative calculation using a sigmoid curve analysis algorithm (FIFTY, based on Graph PAD Prism Version 3.03) with a variable Hill coefficient.

T1 sequence (Q05397 whole entry): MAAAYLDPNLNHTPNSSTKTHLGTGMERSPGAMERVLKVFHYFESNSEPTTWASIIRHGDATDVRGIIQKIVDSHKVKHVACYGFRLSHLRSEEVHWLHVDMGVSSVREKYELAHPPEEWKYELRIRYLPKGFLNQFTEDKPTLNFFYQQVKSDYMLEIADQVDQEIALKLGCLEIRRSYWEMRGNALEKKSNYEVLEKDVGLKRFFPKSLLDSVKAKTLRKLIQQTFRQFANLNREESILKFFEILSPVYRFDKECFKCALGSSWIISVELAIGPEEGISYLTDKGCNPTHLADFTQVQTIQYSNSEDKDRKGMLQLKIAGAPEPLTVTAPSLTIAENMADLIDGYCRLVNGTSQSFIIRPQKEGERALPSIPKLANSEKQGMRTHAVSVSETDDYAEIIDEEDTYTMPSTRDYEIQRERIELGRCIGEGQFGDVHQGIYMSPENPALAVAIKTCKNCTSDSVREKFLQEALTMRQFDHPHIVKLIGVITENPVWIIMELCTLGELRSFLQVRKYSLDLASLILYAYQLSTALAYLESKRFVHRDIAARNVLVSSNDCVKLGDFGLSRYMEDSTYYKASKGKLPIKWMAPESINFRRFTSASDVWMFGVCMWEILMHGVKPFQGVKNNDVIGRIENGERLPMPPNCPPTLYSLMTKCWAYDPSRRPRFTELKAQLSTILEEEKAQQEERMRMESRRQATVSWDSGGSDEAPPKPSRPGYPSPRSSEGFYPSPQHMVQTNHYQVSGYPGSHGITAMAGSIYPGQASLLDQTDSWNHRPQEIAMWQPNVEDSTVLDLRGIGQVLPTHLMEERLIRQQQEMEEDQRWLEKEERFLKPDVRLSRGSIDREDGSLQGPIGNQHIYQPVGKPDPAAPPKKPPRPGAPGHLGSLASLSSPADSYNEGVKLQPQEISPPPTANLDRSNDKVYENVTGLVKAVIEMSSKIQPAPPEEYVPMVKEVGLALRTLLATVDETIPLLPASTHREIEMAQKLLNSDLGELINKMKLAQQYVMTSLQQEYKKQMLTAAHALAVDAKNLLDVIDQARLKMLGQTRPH

IC50 (PTK2 enzyme [1]) [nM]	IC50 [2] [nM]	IC50 (PTK2 enzyme [3]) [nM]	SMILES
0.9	265		COc1cc(C(=O)NC2CCN(C)CC2)ccc1Nc1ncc(C(F)(F)F)c(N[C@@H]2CCC[C@H]2NS(C)(=O)=O)n1 [Example I-126, 4-[4-((1R,2R)-2-methanesulphonylamino-cyclopentylamino)-5-trifluoromethyl-pyrimidin-2-ylamino]-3-methoxy-N-(1-methyl-piperidin-4-yl)-benzamide]
	417	0.53	COc1cc(C(=O)NC2CCN(C)CC2)c(F)cc1Nc1ncc(Cl)c(N[C@@H]2CCC[C@H]2N(C)S(C)(=O)=O)n1 [Example I-127, 4-{5-chloro-4-[(1R,2R)-2-(methanesulphonyl-methyl-amino)-cyclopentylamino]-pyrimidin-2-ylamino}-2-fluoro-5-methoxy-N-(1-methyl-piperidin-4-yl)-benzamide]
0.79	> 5000		COc1cc(C(=O)NC2CCN(C)CC2)c(Cl)cc1Nc1ncc(C(F)(F)F)c(N[C@@H]2CCCC[C@H]2N(C)S(C)(=O)=O)n1 [Example I-128]
	1010	0.29	COc1cc(C(=O)NC2CCN(C)CC2)c(Cl)cc1Nc1ncc(C(F)(F)F)c(N[C@@H]2CCC[C@H]2N(C)S(C)(=O)=O)n1 [Example I-131]
0.91	2190		COCCNC(=O)c1cc(OC)c(Nc2ncc(C(F)(F)F)c(N[C@@H]3CCCC[C@H]3N(C)S(C)(=O)=O)n2)cc1C [Example I-133]
	778	0.5	COc1cc(N2CCNCC2)c(Cl)cc1Nc1ncc(C(F)(F)F)c(N[C@@H]2CCC[C@H]2N(C)S(C)(=O)=O)n1 [Example I-134]
1	1030		CNC(=O)c1cc(OC)c(Nc2ncc(C(F)(F)F)c(N[C@@H]3CCCC[C@H]3N(C)S(C)(=O)=O)n2)cc1Cl [Example I-135]
	1070	0.44	CNC(=O)c1cc(OC)c(Nc2ncc(C(F)(F)F)c(N[C@@H]3CCCC[C@H]3NS(C)(=O)=O)n2)cc1Cl [Example I-137]
	422	0.41	C#CCNC(=O)c1cc(OC)c(Nc2ncc(C(F)(F)F)c(N[C@@H]3CCC[C@H]3NS(C)(=O)=O)n2)cc1C [Example I-138]
	> 5000	0.86	COc1cc(N2CCN(C(C)(C)C)CC2)c(C)cc1Nc1ncc(C(F)(F)F)c(N[C@@H]2CCC[C@H]2N(C)S(C)(=O)=O)n1 [Example I-140]
	311	0.5	COc1cc(C(=O)NC2CCN(C)CC2)c(F)cc1Nc1ncc(Br)c(N[C@@H]2CCC[C@H]2N(C)S(C)(=O)=O)n1 [Example I-142]
	> 9000	0.76	COc1ccc(C(=O)NCCN(C)C)cc1Nc1ncc(C(F)(F)F)c(N[C@@H]2CCCC[C@H]2N(C)S(C)(=O)=O)n1 [Example I-144]
	413	0.58	COc1cc(NC(=O)[C@H]2CCCN2C)ccc1Nc1ncc(C(F)(F)F)c(N[C@@H]2CCCC[C@H]2N(C)S(C)(=O)=O)n1 [Example I-146]
0.9	332		COc1cc(CN(C)C)ccc1Nc1ncc(C(F)(F)F)c(N[C@@H]2CCCC[C@H]2N(C)S(C)(=O)=O)n1 [Example I-147]
0.95	707		COc1cc(CN2CCN(C)CC2)ccc1Nc1ncc(C(F)(F)F)c(N[C@@H]2CCCC[C@H]2N(C)S(C)(=O)=O)n1 [Example I-148]
	1590	0.41	CNC(=O)c1cc(OC)c(Nc2ncc(C(F)(F)F)c(N[C@@H]3CCCC[C@H]3NS(C)(=O)=O)n2)cc1C [Example I-152]
	> 10000	0.69	CCc1cc(Nc2ncc(C(F)(F)F)c(N[C@@H]3CCC[C@H]3N(C)S(C)(=O)=O)n2)c(OC)cc1N1CCNCC1 [Example I-153]
	245	0.93	COc1cc(NC(=O)C2CCN(C)CC2)ccc1Nc1ncc(C(F)(F)F)c(N[C@@H]2CCCC[C@H]2N(C)S(C)(=O)=O)n1 [Example I-155]
1	3360		COc1cc(C(=O)NC2CCN(C)CC2)c(C)cc1Nc1ncc(Cl)c(N[C@@H]2CCCC[C@H]2N(C)S(C)(=O)=O)n1 [Example I-164]
4	167		COc1cc(NC(C)=O)ccc1Nc1ncc(C(F)(F)F)c(N[C@@H]2CCCC[C@H]2N(C)S(C)(=O)=O)n1 [Example I-165]
